Results taken from paper PMC12030165, “Bioactivity of Synthesized Trifluoromethyl Thioxanthone Analogues” (Pharmaceuticals, 2025).

What was measured:
[1] = test system: HeLa cells; assay: Cytotoxicity (MTS) against HeLa cells; format: cell-based; conditions: for IC50: Homo sapiens, HeLa, concentration range 100–20,000 nM, read-out: IC50 of inhibition activity against Hela cells
Description: RPMI-1640 medium was used to culture cervical adenocarcinoma (HeLa) cancer cells, supplemented with 10% fetal bovine serum, 1% penicillin/streptomycin, and 1% L-glutamine. The HeLa cells were grown in a humidified environment at 37 °C with a 5% CO2 atmosphere. A 96-well plate was employed for seeding the cells at a density of 2.6 × 10^4 cells per well. Following a 24-h incubation, the cells were treated with various concentrations of the tested (AO) fractions. Cell viability was assessed using the Cell Titer 96® Aqueous One Solution Cell Proliferation (MTS) assay, following the manufacturer’s instructions (Promega Corporation, Wisconsin, WI, USA). Briefly, at the end of the treatment, 20 µL of MTS solution was added to each well containing 100 µL of media, and the cells were incubated at 37 °C for 2 h. The absorbance was measured using a UV-visible spectrophotometer at a wavelength of 490 nm.

[2] = biological target: T1, porcine pancreatic lipase (Sus scrofa, UniProt P00591); assay: Inhibition assay of pancreatic lipase enzyme (PNPB); format: biochemical
T1 construct: purchased Sigma-Aldrich (Missouri, MO, USA)
T1 sequence (P00591 1-450): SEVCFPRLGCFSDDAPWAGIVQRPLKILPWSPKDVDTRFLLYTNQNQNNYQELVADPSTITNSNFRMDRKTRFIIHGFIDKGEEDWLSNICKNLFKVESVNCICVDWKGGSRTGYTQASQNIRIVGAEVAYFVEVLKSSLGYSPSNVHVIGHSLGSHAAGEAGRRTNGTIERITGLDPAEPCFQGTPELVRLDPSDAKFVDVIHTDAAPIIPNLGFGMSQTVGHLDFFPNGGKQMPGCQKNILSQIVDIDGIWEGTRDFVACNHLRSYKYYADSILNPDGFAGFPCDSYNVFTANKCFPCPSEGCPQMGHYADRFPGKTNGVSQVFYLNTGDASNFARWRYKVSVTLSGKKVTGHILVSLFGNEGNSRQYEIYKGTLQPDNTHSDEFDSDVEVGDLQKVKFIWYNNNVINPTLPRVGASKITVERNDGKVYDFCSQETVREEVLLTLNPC
Description: A stock solution of 1 mg/mL (1000 μg/mL) was prepared for each product using 10% DMSO. This stock solution created […] different concentrations at 20, 50, and 70 μg/mL. A fresh stock solution of pancreatic lipase enzyme was prepared immediately before use. […] In the experiment, 0.1 mL of the 1 mg/mL porcine pancreatic lipase solution was added to test tubes containing 0.2 mL of each of the various concentrations of the products. The mixtures were then brought to a final volume of 1 mL by adding a Tris-HCl solution (pH 7.4) and were incubated at 25 °C for 15 min. After the incubation period, 0.1 mL of the PNPB solution was added to each test tube, and the mixtures were incubated again for 30 min at 37 °C. The activity of pancreatic lipase was measured by assessing the hydrolysis of p-nitrophenyl butyrate to p-nitrophenol at a wavelength of 410 nm using a UV-visible spectrophotometer.

Molecule `OC1(Cc2ccccc2)c2ccccc2Sc2ccc(C(F)(F)F)cc21` (stereo not drawn) [Compound 2, 9-benzyl-2-(trifluoromethyl)-9H-thioxanthen-9-ol] has an IC50 [1] of 0.169 µM and an IC50 [2] of 111 ± 7.5 µM.
In the case of `OC1(c2ccccc2)c2ccccc2Sc2ccc(C(F)(F)F)cc21` (stereo not drawn) [Compound 1, 9-phenyl-2-(trifluoromethyl)-9H-thioxanthen-9-ol], the “% toxicity against HeLa cells” value ([1]; 200 nM) is reported as 93.18%, the IC50 [1] is reported as 0.0878 µM and the IC50 [2] is reported as 176 µM.
In the case of “S-(9-benzyl-2-(trifluoromethyl)-9H-thioxanthen-9-yl)-L-cysteine [Compound 3]”, the IC50 [2] is reported as 277 µM.
